Experimental data reported in US11752095B2, “Medroxyprogesterone acetate injectable compositions and methods of use” (Family Health International, priority 2018, dated 2023).
Read-outs that look alike come from different tables or passages of the source.

Assay: Pharmacokinetics in women (Example 23)
Format: in vivo
Conditions: composition with 400 mg/ml MPA; for Cmax / half-life / Tmax / concentration at 28 day / concentration at 91 day / concentration at 182 day: female, human, in vivo
Procedure: 12 women were sequentially administered medroxyprogesterone acetate. PK was evaluated for at least 182 days. The composition tested was an embodiment of the disclosure and included 400 mg/ml MPA,

CC(=O)O[C@]1(C(C)=O)CC[C@H]2[C@@H]3C[C@H](C)C4=CC(=O)CC[C@]4(C)[C@H]3CC[C@@]21C [medroxyprogesterone acetate]
AUC0-28, Mean (N 6): 9.84 ng·days/mL
AUC0-28, Median (N 6): 9.31 ng·days/mL
AUC0-28, Min-Max (N 6): 7.83 to 14.52 ng·days/mL
AUC0-91, Mean (N 6): 34.52 ng·days/mL
AUC0-91, Median (N 6): 34.87 ng·days/mL
AUC0-91, Min-Max (N 6): 23.41 to 44.06 ng·days/mL
AUC0-182, Mean (N 6): 60.21 ng·days/mL
AUC0-182, Median (N 6): 60.28 ng·days/mL
AUC0-182, Min-Max (N 6): 38.62 to 84.88 ng·days/mL
Cmax (N 6, read-out: Cmax, Mean): 0.53 ng/mL
Cmax (N 6, read-out: Cmax, Median): 0.55 ng/mL
Cmax (N 6, read-out: Cmax, Min-Max): 0.42 to 0.69 ng/mL
half-life (N 6, read-out: Half-life, Mean (converted)): 99.4 days
half-life (N 6, read-out: Half-life, Median (converted)): 104 days
half-life (N 6, read-out: Half-life, Min-Max): 22.9 to 166 days
Tmax (N 6, read-out: Tmax, Mean (converted)): 17.4 days
Tmax (N 6, read-out: Tmax, Median (converted)): 9.49 days
concentration at 28 day (day 28, N 6, read-out: C28, Mean): 0.36 ng/mL
concentration at 28 day (day 28, N 6, read-out: C28, Median): 0.36 ng/mL
concentration at 28 day (day 28, N 6, read-out: C28, Min-Max): 0.03 to 0.5 ng/mL
concentration at 91 day (day 91, N 6, read-out: C91, Mean): 0.41 ng/mL
concentration at 91 day (day 91, N 6, read-out: C91, Median): 0.41 ng/mL
concentration at 91 day (day 91, N 6, read-out: C91, Min-Max): 0.26 to 0.63 ng/mL
concentration at 182 day (day 182, N 6, read-out: C182, Mean): 0.22 ng/mL
concentration at 182 day (day 182, N 6, read-out: C182, Median): 0.22 ng/mL
concentration at 182 day (day 182, N 6, read-out: C182, Min-Max): 0.14 to 0.34 ng/mL
